For one data set, the system named is S. aureus ATCC 25923. The data set is classed as cell-based, Staphylococcus aureus. The method, then:
(§1) The experimental operation of the expression of the Plectasin variant in P. pastoris in well plates, shaking flasks, and 5 L level fermentation was performed as referenced in previous studies. Candidates were identified through three different levels of screening. Firstly, a large number of transformants were screened through well plates to induce expression and determined by the inhibition zone assay (against S. aureus ATCC 43300). Secondly, the transformants with obvious inhibition zones were sequenced to obtain protein sequence information, then induced expression at the shake level. The supernatant was collected and purified to obtain the target protein; the anti-Staphylococcus aureus activity of the protein was detected by a MIC assay. Finally, the codons of candidate sequences were optimized, the expression vector was reconstructed, the optimal transformers were obtained, and the high-density cultivation was performed in a 5 L fermenter. The final agent was determined by high protein yield and good activity (Figure 2).
(§2) The MIC value of PN7 against bacteria was determined by the microtiter broth dilution method. Briefly, bacteria grown to the exponential phase were diluted into MHB; subsequently, 90 μL of bacterial suspension (10^5 CFUs/mL) was mixed with 10 μL of different concentrations of PN7 in a sterilized 96-well microtiter plate (Nunc). MIC values were recorded after incubation for 16–18 h at 37 °C based on the lowest concentrations of peptides in which no visible bacterial growth was observed.

For the next data set, the system named is S. aureus E48. The data set is classed as cell-based, Staphylococcus aureus. The procedure: as §1, §2
Another data set has as its system S. aureus CVCC 546. The format is cell-based, Staphylococcus aureus. The procedure:
as §1, §2

For another data set, the system named is human keratinocyte HaCaT. Put plainly: Cytotoxicity, MTT assay. The format is cell-based. Conditions: HaCaT cells, at 128 mg/mL (so in the source). The method, then: The cytotoxicity of PN7 was evaluated by MTT (Beyotime, Shanghai, China) assay.
Background: Formazan colour is commonly taken as a measure of viable cells.

Data set [1] in a line: Stability in simulated intestinal fluid, MIC read-out. The data set is classed as in vitro ADME. The method, then: The stability of peptide PN7 in SGF, SIF, and 25% or 50% mouse serum was carried out as previously described. A final concentration of 1280 μg/mL PN7 was prepared and incubated at 37 °C and then diluted twice. The MIC was determined.
Where [2] appears, read: microtiter broth dilution, MHB, 10^5 CFUs/mL, 16–18 h at 37 °C.

Results on one compound are retold here after publication PMC10451632, “Site Mutation Improves the Expression and Antimicrobial Properties of Fungal Defense” (Antibiotics, 2023).

Values after ≈ are worked out from the molar mass of the structure shown. Where two headings read alike, the source gives them in different places. Bridge positions count the residues as written; N and C are the ends. Peptide text beside a SMILES is read from it.

Regarding `CC[C@H](C)[C@@H]1NC(=O)[C@H](CO)NC(=O)[C@H](CCCCN)NC(=O)[C@@H]2CSSC[C@@H](C(=O)N[C@@H](Cc3ccc(O)cc3)C(=O)O)NC(=O)[C@H](CCCCN)NC(=O)[C@@H]3CSSC[C@H](NC(=O)[C@H](CCCNC(=N)N)NC(=O)CNC(=O)[C@H](CC(=O)O)NC(=O)[C@H](CC(=O)O)NC(=O)[C@H](CCC(=O)O)NC(=O)[C@H](Cc4ccc(O)cc4)NC(=O)[C@H](Cc4c[nH]c5ccccc45)NC(=O)[C@@H]4CCCN4C(=O)CNC(=O)[C@H](CC(N)=O)NC(=O)[C@@H](NC(=O)CNC(=O)[C@H](Cc4ccccc4)NC(=O)CN)CSSC[C@H](NC(=O)[C@H](Cc4ccc(O)cc4)NC(=O)CNC(=O)CNC(=O)[C@H](CCCCN)NC(=O)[C@H](Cc4ccc(O)cc4)NC(=O)CNC(=O)[C@H](CCCCN)NC1=O)C(=O)N[C@@H](C)C(=O)N[C@@H](CCCCN)C(=O)NCC(=O)NCC(=O)N[C@@H](Cc1ccccc1)C(=O)N[C@@H](C(C)C)C(=O)N3)C(=O)N[C@@H](Cc1c[nH]cn1)C(=O)N[C@@H](CC(N)=O)C(=O)N[C@@H](Cc1c[nH]cn1)C(=O)N2` [PN7] (H-GFGCNGPWYEDDGRCHNHCKSIKGYKGGYCAKGGFVCKCY-OH; disulfide 4-30, 15-37, 19-39 (inferred); N-terminus and C-terminus assumed), the minimal inhibitory concentration (MIC) is 16 µg/mL (≈ 3.63 µM) in the data set on S. aureus ATCC 25923 (S. aureus 25923, purified protein induced by shaking flasks); 16 µg/mL (≈ 3.63 µM) against S. aureus ATCC 25923 (setting [2]); 4 µg/mL (≈ 0.908 µM) against S. aureus E48 (S. aureus E48, purified protein induced by shaking flasks); 1 µg/mL (≈ 0.227 µM) against S. aureus E48 (setting [2]); 4 µg/mL (≈ 0.908 µM) in the data set with S. aureus CVCC 546 (S. aureus 546, purified protein induced by shaking flasks); 1 µg/mL (≈ 0.227 µM) against S. aureus CVCC 546 (setting [2]). Also, the cell viability with human keratinocyte HaCaT was 85.36%. In addition, the “activity after incubation with simulated intestinal fluid (SIF)” value in data set [1] (1280 μg/mL PN7, 37 °C, then two-fold dilution, triplicate) is listed as “abolished the activity”. Further, the sensitivity to trypsin entry in data set [1] (Figure 7E) was “sensitive to trypsin”.

In general, MIC refers to the least concentration at which growth counts as inhibited. Usually cell viability stands for a read-out of living cells in per cent, often relative to untreated cells.
